Data reported in the supplement of paper PMC5908809.

How the values were obtained:
[1] = tested on: normal NK cells expanded with K562-aAPC; test: percent inhibition of viability; higher = more inhibition; conditions: 72 h, IL-2 2.5 ng/mL
Experimental: (§1)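 Drug sensitivity and resistance testing on K562-aAPC-expanded normal NK cells: 5 concentrations (10-fold steps over a 10,000-fold range), 72 h at 37 °C, viability by CellTiter-Glo normalised to DMSO and benzethonium chloride controls; DSS from the fitted curve.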

DERL-7 (IL-2 2.5 ng/mL) [2] = test: as above; conditions: 72 h
IMC-1 (IL-2 20 ng/mL) [3] = test: as above; conditions: 72 h
KAI3 (IL-2 2.5 ng/mL) [4] = test: as above; conditions: 72 h
KHYG-1 (IL-2 2.5 ng/mL) [5] = test: as above; conditions: 72 h
NK-92 (IL-2 2.5 ng/mL) [6] = test: as above; conditions: 72 h
NK-YS (IL-2 2.5 ng/mL) [7] = test: as above; conditions: 72 h
NKL (IL-2 2.5 ng/mL) [8] = test: as above; conditions: 72 h
SNK-6 (IL-2 2.5 ng/mL) [9] = test: as above; conditions: 72 h
YT (IL-2 2.5 ng/mL) [10] = test: as above; conditions: 72 h
[11] = tested on: normal primary NK cells, pool 1 (3 donors) (IL-2 2.5 ng/mL); test: as above; conditions: 72 h
[12] = tested on: normal primary NK cells, pool 1 (3 donors), resting (IL-2 0 ng/mL); test: as above; conditions: 72 h
[13] = tested on: normal primary NK cells, pool 2 (3 donors) (IL-2 2.5 ng/mL); test: as above; conditions: 72 h
[14] = tested on: normal primary NK cells, pool 3 (3 donors) (IL-2 2.5 ng/mL); test: as above; conditions: 72 h
[15] = tested on: normal NK cells expanded with K562-aAPC; test: drug sensitivity score (DSS) (DSS units); higher = more sensitive; extreme values may be limits of the assay; conditions: 72 h; IL-2 2.5 ng/mL
Experimental: as §1

DERL-7 (IL-2 2.5 ng/mL) [16] = test: as above; conditions: 72 h
IMC-1 (IL-2 20 ng/mL) [17] = test: as above; conditions: 72 h
KAI3 (IL-2 2.5 ng/mL) [18] = test: as above; conditions: 72 h
KHYG-1 (IL-2 2.5 ng/mL) [19] = test: as above; conditions: 72 h
NK-92 (IL-2 2.5 ng/mL) [20] = test: as above; conditions: 72 h
NK-YS (IL-2 2.5 ng/mL) [21] = test: as above; conditions: 72 h
NKL (IL-2 2.5 ng/mL) [22] = test: as above; conditions: 72 h
SNK-6 (IL-2 2.5 ng/mL) [23] = test: as above; conditions: 72 h
YT (IL-2 2.5 ng/mL) [24] = test: as above; conditions: 72 h
[25] = tested on: normal primary NK cells, pool 1 (3 donors) (IL-2 2.5 ng/mL); test: as above; conditions: 72 h
[26] = tested on: normal primary NK cells, pool 1 (3 donors), resting (IL-2 0 ng/mL); test: as above; conditions: 72 h
[27] = tested on: normal primary NK cells, pool 2 (3 donors) (IL-2 2.5 ng/mL); test: as above; conditions: 72 h
[28] = tested on: normal primary NK cells, pool 3 (3 donors) (IL-2 2.5 ng/mL); test: as above; conditions: 72 h

CN[C@@H](C)C(=O)N[C@H](C(=O)N1CCC[C@H]1c1nc(C(=O)c2ccc(F)cc2)cs1)C1CCCCC1 [LCL161] (max concentration tested 25000 nM)
percent inhibition of viability [%]
Conditions	2.5 nM	25 nM	250 nM	2500 nM	25000 nM
DERL-7 (IL-2 2.5 ng/mL) [2]	3.1	13	11.3	36.6	64.2
IMC-1 (IL-2 20 ng/mL) [3]	-0.09	4.35	9.97	0.82	31.3
KAI3 (IL-2 2.5 ng/mL) [4]	-3.88	-6.89	-0.05	26.9	67.2
KHYG-1 (IL-2 2.5 ng/mL) [5]	-3.69	-2.27	43.7	87.9	86.8
NK-92 (IL-2 2.5 ng/mL) [6]	-9.41	4.44	14.3	35.9	87.5
NK-YS (IL-2 2.5 ng/mL) [7]	-6.78	-9.82	-8.28	-8.9	20.8
NKL (IL-2 2.5 ng/mL) [8]	-0.58	12.2	1.43	5.86	46.8
SNK-6 (IL-2 2.5 ng/mL) [9]	9.58	4.06	-3.23	-1.7	42.3
YT (IL-2 2.5 ng/mL) [10]	4.24	0.05	5.12	15.8	49.9
[1]	3.9	9.45	17.1	42	71.6
[11]	-2.53	-6.03	25.8	58	91
[12]	-36.7	-17.7	-2.19	43.8	88.3
[13]	-10.3	4.59	24.6	55.9	80.5
[14]	-5.71	1.98	19.5	51.1	75.2

Conditions	drug sensitivity score
DERL-7 (IL-2 2.5 ng/mL) [16]	8.62
IMC-1 (IL-2 20 ng/mL) [17]	1.5
KAI3 (IL-2 2.5 ng/mL) [18]	7.35
KHYG-1 (IL-2 2.5 ng/mL) [19]	21.5
NK-92 (IL-2 2.5 ng/mL) [20]	9.07
NK-YS (IL-2 2.5 ng/mL) [21]	0.39
NKL (IL-2 2.5 ng/mL) [22]	3.42
SNK-6 (IL-2 2.5 ng/mL) [23]	1.99
YT (IL-2 2.5 ng/mL) [24]	4.58
[15]	10.4
[25]	14
[26]	10.4
[27]	13.6
[28]	12

C[C@]12O[C@H](C[C@]1(O)CO)n1c3ccccc3c3c4c(c5c6ccccc6n2c5c31)CNC4=O [Lestaurtinib] (max concentration tested 1000 nM)
percent inhibition of viability [%]
Conditions	0.1 nM	1 nM	10 nM	100 nM	1000 nM
DERL-7 (IL-2 2.5 ng/mL) [2]	6.54	3.47	17.9	85.4	99.6
IMC-1 (IL-2 20 ng/mL) [3]	-6.9	-5.94	-22.2	51.8	98.9
KAI3 (IL-2 2.5 ng/mL) [4]	-0.38	3.13	35.9	86.4	76.4
KHYG-1 (IL-2 2.5 ng/mL) [5]	-2.95	1.85	23.3	99.3	98.2
NK-92 (IL-2 2.5 ng/mL) [6]	-0.14	-6.28	7.06	76.2	82.7
NK-YS (IL-2 2.5 ng/mL) [7]	-0.02	0.67	6.21	48.1	87.8
NKL (IL-2 2.5 ng/mL) [8]	-13.1	-12.9	13.3	71.2	80.6
SNK-6 (IL-2 2.5 ng/mL) [9]	0.62	7.99	4.23	64.6	73.7
YT (IL-2 2.5 ng/mL) [10]	-2.5	-0.06	3.18	55.1	91.6
[1]	0.88	0.03	29	96.5	95.9
[11]	-8.02	-1.5	10.2	76	75.2
[12]	4.88	-1.99	-2.95	26	18.6
[13]	-7.68	3.05	13.7	69.3	73
[14]	-8.42	-14	-3.13	65.2	72.3

Conditions	drug sensitivity score
DERL-7 (IL-2 2.5 ng/mL) [16]	17.9
IMC-1 (IL-2 20 ng/mL) [17]	11.8
KAI3 (IL-2 2.5 ng/mL) [18]	20.1
KHYG-1 (IL-2 2.5 ng/mL) [19]	21.5
NK-92 (IL-2 2.5 ng/mL) [20]	15
NK-YS (IL-2 2.5 ng/mL) [21]	10.6
NKL (IL-2 2.5 ng/mL) [22]	14.8
SNK-6 (IL-2 2.5 ng/mL) [23]	12.5
YT (IL-2 2.5 ng/mL) [24]	11.7
[15]	21.6
[25]	15.6
[26]	3.91
[27]	14.7
[28]	11.9

Nc1nc(OCc2cc(Br)cs2)c2[nH]cnc2n1 [Lomeguatrib] (max concentration tested 10000 nM)
percent inhibition of viability [%]
Conditions	1 nM	10 nM	100 nM	1000 nM	10000 nM
DERL-7 (IL-2 2.5 ng/mL) [2]	4.42	1.17	2.11	0.21	29.9
IMC-1 (IL-2 20 ng/mL) [3]	-11.5	-6.71	-6.4	-6.2	8.26
KAI3 (IL-2 2.5 ng/mL) [4]	3.07	-2.1	-3	0.64	24.2
KHYG-1 (IL-2 2.5 ng/mL) [5]	1.34	-3.62	-7.2	-3.96	7.46
NK-92 (IL-2 2.5 ng/mL) [6]	-11.6	-17.5	-5.85	-7.63	3.77
NK-YS (IL-2 2.5 ng/mL) [7]	1.57	-2.53	-4.74	-3.26	12.7
NKL (IL-2 2.5 ng/mL) [8]	-4.89	-6.45	-9.35	8.52	51.3
SNK-6 (IL-2 2.5 ng/mL) [9]	-7.32	6.29	-7.89	4	9.3
YT (IL-2 2.5 ng/mL) [10]	-3.67	-6.22	-3.85	0.11	14.3
[1]	-6.1	-4.35	-4.12	-3.84	21
[11]	-4.41	4.97	9.83	16	26.1
[12]	12.8	8.93	18.4	19.5	20.8
[13]	-5.64	-7.78	3.47	3.5	14.1
[14]	0.89	-1.05	7.15	4.29	9.2

Conditions	drug sensitivity score
DERL-7 (IL-2 2.5 ng/mL) [16]	1.33
IMC-1 (IL-2 20 ng/mL) [17]	0
KAI3 (IL-2 2.5 ng/mL) [18]	0.96
KHYG-1 (IL-2 2.5 ng/mL) [19]	0
NK-92 (IL-2 2.5 ng/mL) [20]	0
NK-YS (IL-2 2.5 ng/mL) [21]	0.03
NKL (IL-2 2.5 ng/mL) [22]	4.14
SNK-6 (IL-2 2.5 ng/mL) [23]	0
YT (IL-2 2.5 ng/mL) [24]	0.19
[15]	0.49
[25]	2.96
[26]	0
[27]	0.34
[28]	0
